# In the NIST ThermoML archive (doi:10.1021/acs.jced.8b00854):
# ± gives the expanded uncertainty stated by the source.
# What was measured:
# [1] = refractive index (Na D-line) (dimensionless); xn = mol fraction of the nth substance listed; settings: 100 kPa, Liquid, Standard Abbe refractometry
# [2] = xn = mol fraction of the nth substance listed; settings: 100 kPa, Liquid, Vibrating tube method
smiles,measurement,setting,value
CCCCn1cc[n+](C)c1.F[B-](F)(F)F [1-butyl-3-methylimidazolium tetrafluoroborate] + O,refractive index,"[1]; 293.15 K, x1 = 0.0994",1.383 ± 0.0018
same,refractive index,"[1]; 293.15 K, x1 = 0.2005",1.397 ± 0.0016
same,refractive index,"[1]; 293.15 K, x1 = 0.3003",1.406 ± 0.0016
same,refractive index,"[1]; 293.15 K, x1 = 0.4003",1.411 ± 0.0016
same,refractive index,"[1]; 293.15 K, x1 = 0.5006",1.414 ± 0.0016
same,refractive index,"[1]; 293.15 K, x1 = 0.6004",1.4165 ± 0.0016
same,refractive index,"[1]; 293.15 K, x1 = 0.7008",1.418 ± 0.0016
same,refractive index,"[1]; 293.15 K, x1 = 0.8006",1.42 ± 0.0016
same,refractive index,"[1]; 293.15 K, x1 = 0.899",1.4215 ± 0.0016
same,refractive index,"[1]; 303.15 K, x1 = 0.0994",1.379 ± 0.0017
same,refractive index,"[1]; 303.15 K, x1 = 0.2005",1.395 ± 0.0016
same,refractive index,"[1]; 303.15 K, x1 = 0.3003",1.403 ± 0.0016
same,refractive index,"[1]; 303.15 K, x1 = 0.4003",1.409 ± 0.0016
same,refractive index,"[1]; 303.15 K, x1 = 0.5006",1.4125 ± 0.0016
same,refractive index,"[1]; 303.15 K, x1 = 0.6004",1.415 ± 0.0016
same,refractive index,"[1]; 303.15 K, x1 = 0.7008",1.4165 ± 0.0016
same,refractive index,"[1]; 303.15 K, x1 = 0.8006",1.418 ± 0.0016
same,refractive index,"[1]; 303.15 K, x1 = 0.899",1.4195 ± 0.0016
same,refractive index,"[1]; 313.15 K, x1 = 0.0994",1.3765 ± 0.0016
same,refractive index,"[1]; 313.15 K, x1 = 0.2005",1.394 ± 0.0016
same,refractive index,"[1]; 313.15 K, x1 = 0.3003",1.4015 ± 0.0016
same,refractive index,"[1]; 313.15 K, x1 = 0.4003",1.4075 ± 0.0016
same,refractive index,"[1]; 313.15 K, x1 = 0.5006",1.41 ± 0.0016
same,refractive index,"[1]; 313.15 K, x1 = 0.6004",1.4125 ± 0.0016
same,refractive index,"[1]; 313.15 K, x1 = 0.7008",1.414 ± 0.0016
same,refractive index,"[1]; 313.15 K, x1 = 0.8006",1.416 ± 0.0016
same,refractive index,"[1]; 313.15 K, x1 = 0.899",1.4175 ± 0.0017
same,refractive index,"[1]; 323.15 K, x1 = 0.0994",1.376 ± 0.0016
same,refractive index,"[1]; 323.15 K, x1 = 0.2005",1.393 ± 0.0016
same,refractive index,"[1]; 323.15 K, x1 = 0.3003",1.4015 ± 0.0016
same,refractive index,"[1]; 323.15 K, x1 = 0.4003",1.4055 ± 0.0016
same,refractive index,"[1]; 323.15 K, x1 = 0.5006",1.4075 ± 0.0016
same,refractive index,"[1]; 323.15 K, x1 = 0.6004",1.4105 ± 0.0016
same,refractive index,"[1]; 323.15 K, x1 = 0.7008",1.4125 ± 0.0016
same,refractive index,"[1]; 323.15 K, x1 = 0.8006",1.414 ± 0.0016
same,refractive index,"[1]; 323.15 K, x1 = 0.899",1.415 ± 0.0016
same,refractive index,"[1]; 333.15 K, x1 = 0.0994",1.3755 ± 0.0016
same,refractive index,"[1]; 333.15 K, x1 = 0.2005",1.39 ± 0.0016
same,refractive index,"[1]; 333.15 K, x1 = 0.3003",1.401 ± 0.0016
same,refractive index,"[1]; 333.15 K, x1 = 0.4003",1.405 ± 0.0016
same,refractive index,"[1]; 333.15 K, x1 = 0.5006",1.4075 ± 0.0016
same,refractive index,"[1]; 333.15 K, x1 = 0.6004",1.4095 ± 0.0016
same,refractive index,"[1]; 333.15 K, x1 = 0.7008",1.411 ± 0.0016
same,refractive index,"[1]; 333.15 K, x1 = 0.8006",1.4125 ± 0.0017
same,refractive index,"[1]; 333.15 K, x1 = 0.899",1.4135 ± 0.0016
same,refractive index,"[1]; 343.15 K, x1 = 0.0994",1.3755 ± 0.002
same,refractive index,"[1]; 343.15 K, x1 = 0.2005",1.39 ± 0.0016
same,refractive index,"[1]; 343.15 K, x1 = 0.3003",1.401 ± 0.0016
same,refractive index,"[1]; 343.15 K, x1 = 0.4003",1.4045 ± 0.0016
same,refractive index,"[1]; 343.15 K, x1 = 0.5006",1.407 ± 0.0016
same,refractive index,"[1]; 343.15 K, x1 = 0.6004",1.407 ± 0.0016
same,refractive index,"[1]; 343.15 K, x1 = 0.7008",1.4085 ± 0.0017
same,refractive index,"[1]; 343.15 K, x1 = 0.8006",1.409 ± 0.0017
same,refractive index,"[1]; 343.15 K, x1 = 0.899",1.411 ± 0.0017
same,mass density,"[2]; 293.15 K, x1 = 0.0994",1106.69 ± 2 kg/m3
same,mass density,"[2]; 293.15 K, x1 = 0.2005",1143.19 ± 2 kg/m3
same,mass density,"[2]; 293.15 K, x1 = 0.3003",1161.69 ± 2 kg/m3
same,mass density,"[2]; 293.15 K, x1 = 0.4003",1173.6 ± 2 kg/m3
same,mass density,"[2]; 293.15 K, x1 = 0.5006",1182.13 ± 2 kg/m3
same,mass density,"[2]; 293.15 K, x1 = 0.6004",1188.42 ± 2 kg/m3
same,mass density,"[2]; 293.15 K, x1 = 0.7008",1193.17 ± 2 kg/m3
same,mass density,"[2]; 293.15 K, x1 = 0.8006",1196.75 ± 2 kg/m3
same,mass density,"[2]; 293.15 K, x1 = 0.899",1199.6 ± 2 kg/m3
same,mass density,"[2]; 303.15 K, x1 = 0.0994",1100.29 ± 2 kg/m3
same,mass density,"[2]; 303.15 K, x1 = 0.2005",1135.92 ± 2 kg/m3
same,mass density,"[2]; 303.15 K, x1 = 0.3003",1154.24 ± 2 kg/m3
same,mass density,"[2]; 303.15 K, x1 = 0.4003",1166.15 ± 2 kg/m3
same,mass density,"[2]; 303.15 K, x1 = 0.5006",1174.73 ± 2 kg/m3
same,mass density,"[2]; 303.15 K, x1 = 0.6004",1181.09 ± 2 kg/m3
same,mass density,"[2]; 303.15 K, x1 = 0.7008",1185.92 ± 2 kg/m3
same,mass density,"[2]; 303.15 K, x1 = 0.8006",1189.58 ± 2 kg/m3
same,mass density,"[2]; 303.15 K, x1 = 0.899",1192.49 ± 2 kg/m3
same,mass density,"[2]; 313.15 K, x1 = 0.0994",1093.06 ± 2 kg/m3
same,mass density,"[2]; 313.15 K, x1 = 0.2005",1128.35 ± 2 kg/m3
same,mass density,"[2]; 313.15 K, x1 = 0.3003",1146.77 ± 2 kg/m3
same,mass density,"[2]; 313.15 K, x1 = 0.4003",1158.78 ± 2 kg/m3
same,mass density,"[2]; 313.15 K, x1 = 0.5006",1167.43 ± 2 kg/m3
same,mass density,"[2]; 313.15 K, x1 = 0.6004",1173.85 ± 2 kg/m3
same,mass density,"[2]; 313.15 K, x1 = 0.7008",1178.71 ± 2 kg/m3
same,mass density,"[2]; 313.15 K, x1 = 0.8006",1182.39 ± 2 kg/m3
same,mass density,"[2]; 313.15 K, x1 = 0.899",1185.31 ± 2 kg/m3
same,mass density,"[2]; 323.15 K, x1 = 0.0994",1085.97 ± 2 kg/m3
same,mass density,"[2]; 323.15 K, x1 = 0.2005",1120.89 ± 2 kg/m3
same,mass density,"[2]; 323.15 K, x1 = 0.3003",1139.33 ± 2 kg/m3
same,mass density,"[2]; 323.15 K, x1 = 0.4003",1151.42 ± 2 kg/m3
same,mass density,"[2]; 323.15 K, x1 = 0.5006",1160.15 ± 2 kg/m3
same,mass density,"[2]; 323.15 K, x1 = 0.6004",1166.65 ± 2 kg/m3
same,mass density,"[2]; 323.15 K, x1 = 0.7008",1171.59 ± 2 kg/m3
same,mass density,"[2]; 323.15 K, x1 = 0.8006",1175.31 ± 2 kg/m3
same,mass density,"[2]; 323.15 K, x1 = 0.899",1178.26 ± 2 kg/m3
same,mass density,"[2]; 333.15 K, x1 = 0.0994",1079.15 ± 2 kg/m3
same,mass density,"[2]; 333.15 K, x1 = 0.2005",1113.47 ± 2 kg/m3
same,mass density,"[2]; 333.15 K, x1 = 0.3003",1131.87 ± 2 kg/m3
same,mass density,"[2]; 333.15 K, x1 = 0.4003",1144.01 ± 2 kg/m3
same,mass density,"[2]; 333.15 K, x1 = 0.5006",1152.8 ± 2 kg/m3
same,mass density,"[2]; 333.15 K, x1 = 0.6004",1159.37 ± 2 kg/m3
same,mass density,"[2]; 333.15 K, x1 = 0.7008",1164.36 ± 2 kg/m3
same,mass density,"[2]; 333.15 K, x1 = 0.8006",1168.12 ± 2 kg/m3
same,mass density,"[2]; 333.15 K, x1 = 0.899",1171.04 ± 2 kg/m3
same,mass density,"[2]; 343.15 K, x1 = 0.0994",1072.21 ± 2 kg/m3
same,mass density,"[2]; 343.15 K, x1 = 0.2005",1106.02 ± 2 kg/m3
same,mass density,"[2]; 343.15 K, x1 = 0.3003",1124.41 ± 2 kg/m3
same,mass density,"[2]; 343.15 K, x1 = 0.4003",1136.62 ± 2 kg/m3
same,mass density,"[2]; 343.15 K, x1 = 0.5006",1145.48 ± 2 kg/m3
same,mass density,"[2]; 343.15 K, x1 = 0.6004",1152.11 ± 2 kg/m3
same,mass density,"[2]; 343.15 K, x1 = 0.7008",1157.17 ± 2 kg/m3
same,mass density,"[2]; 343.15 K, x1 = 0.8006",1161 ± 2 kg/m3
same,mass density,"[2]; 343.15 K, x1 = 0.899",1164.1 ± 2 kg/m3
